Source: patent US20060281807A1, “Quassinoid compositions for the treatment of cancer and other proliferative diseases” (Tapestry Pharmaceuticals, Inc., priority 2005, published 2006)
Converted amounts (≈) assume the structure as drawn. “And” between values parts separate entries of the source, which are not always exact repeats. Identical values can stand only once. Like-named read-outs stand apart in the source and are kept apart here.

How the values were obtained:
[1] = system: CCRF-CEM (human leukemia); test: Disk diffusion assay, zone of inhibition, CCRF-CEM; assay type: cell-based; details: 1 mg/mL, dilution 1/100
Procedure: (§1) A disk diffusion assay was performed to define the differential cell killing ability of 15-O-(3′-hydroxy-3′-isopropyl-4′-methylpentanoyl)bruceolide. Seven cell types were assayed: L1210 (ATCC CCL-219) (murine leukemia), CCRF-CEM (ATCC CCL-119) (human leukemia), Colon 38 (murine colon adenocarcinoma), HCT116 (ATCC CCL-247) (human colorectal carcinoma), H125 (human lung carcinoma). The murine and human granulocyte/macrophage progenitor cell line (CFU-GM), served as controls.
(§2) Colon 38 cells (about 1 gram) were cut into small fragments in 15 mL of Hank's Balanced Salt Solution (HBSS) over a 100-mesh sieve and gently forced through by the scissors with HBSS constantly perfusing the sieve. The resulting material was then drawn into and out of a 5 mL syringe without a needle to further disperse the cell clumps. The cell solution was diluted and plated in 0.3% agarose in DMEM plus 10% heat-inactivated Bovine Calf Serum (BCS). For plating of all of the cell types (except controls), the 60 mm plates were first prepared with a hard agar bottom layer (0.6% agar in RPMI-1640 plus 15% BCS).
(§3) A 15 μl sample of each compound was dropped onto a 6.5 mm disk (Baxter filter disks). The disks were allowed to dry overnight and then placed close to the edge of a petri dish. Depending upon the cell type, the dishes were incubated for 7 to 10 days, and examined by an inverted stereo-microscope (10×) for measurement of the zone of inhibition. The zone of inhibition was measured from the edge of the filter disk to the beginning of normal-sized colony formation. The diameter of the filter disk, 6.5 mm, was arbitrarily taken as a zone of 200 units. Compounds that were selective for killing solid tumors, as compared to leukemia or normal cells (“solid tumor selective”) were defined as those compounds which produced a difference in zones between solid tumor cells and either normal or leukemia cells of at least 250 units. The results of this analysis are set forth in Table 4, which illustrates the relative diameters of the zones of inhibition by various drugs on the growth of the respective cell types at various drug dilutions.

[2] = system: HCT116 (human colorectal carcinoma); test: Disk diffusion assay, zone of inhibition, HCT116; assay type: cell-based; details: 1 mg/mL
Procedure: as §1, §2
(§4) HCT116 and H125 cells were maintained in cell culture, and were removed from culture by a trypsin-collagenase-DNAase cocktail. The plating efficiencies of each cell type was sufficiently high that 30,000 cells in 3 mL produced the desired number of colonies (i.e., over 10,000 per plate) in 60 mm plates. This soft agar top layer (0.3% with the serum and media as above) plus the titrated tumor cells were poured into the plates and allowed to solidify.
as §3

human CFU-GM = assay type: cell-based; details: 1 mg/mL
Procedure: as §1
(§5) For CFU-GM cells, the femoral marrow of BD2F1 mice was flushed with MEM alpha (2 mL per femur). The cells were passed through an 18 gauge needle twice and the monodispersed suspension was counted. A total of 1.5×10^6 cells were plated in 3 mL of 0.3% agar with the addition of 10% L cell conditioned media, which provided colony stimulating factor, in MEM-alpha plus 10% BCS. For human CFU-GM, the cells were obtained from Poietic Technologies, Inc. (Gaithersburg, Md.) and washed twice with PBS before being titered and added to the agar mixture. The same cell number, culture conditions, and conditioning factors used with respect to the murine CFU-GM cells were used with the human cells, except that the cultures were assessed after 10 days of incubation.
as §3

[3] = Maximum tolerated dose in mice; details: first stage, one mouse per dose
Procedure: Formulations containing 15-O-(3′-hydroxy-3′-isopropyl-4′-methylpentanoyl)bruceolide, 15-(3-isopropyl-4-methyl-2-pentenoyl)-bruceolide, and, for comparative purposes, bruceantin, or peninsularinone were prepared by solubilizing each compound in up to 100 mg/mL of ethanol. These solutions were diluted 1:1 with a stabilizer (Cremophor/propylene glycol). The solutions were then diluted in saline (1:10 minimum).
The maximum tolerated dose (MTD) was determined by a two-stage experiment. In the first stage, between 1 and 10 mg/mL of the formulation was prepared as described above. Next, 0.25 mL of the formulation was injected intravenously into one 20 gram mouse (0.75 mg/mouse). If the animal died within 30 days of injection, a series of subsequent 2-fold dilutions were administered to individual mice until an MTD was defined. […] The second stage of the study involved increasing the number of mice per dose to four, and retesting four dilutions that bracket the MTD from the individual mouse study. The four dilutions were the MTD, a dosage twice the MTD, a dosage ½ the MTD, and a dosage ¼ the MTD.

[4] = system: Colon 38 (murine colon adenocarcinoma); test: Disk diffusion assay, zone of inhibition, Colon 38; zone differentials, potency and product; assay type: cell-based; parameters: key to C38ΔL1210 / C38ΔCFU: difference of zone of inhibition values, in zone units; details: for zone of inhibition, Colon 38: 1 mg/mL; for Sum: C38ΔL1210 plus C38ΔCFU; for C38ΔL1210 / C38ΔCFU: difference between zone of inhibition values; for C38ΔL1210: Colon38 vs L1210 leukemia; for C38ΔCFU: Colon38 vs normal cell CFU-GM; for Product: potency multiplied by zone differentials
Summary of the method: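 Dissociated Colon 38 cells were plated in soft agar over a hard agar layer; 15 µl of compound dilution dried on a 6.5 mm disk was placed on the plate, and incubation ran 7–10 days. Inhibition zone was measured from disk edge to normal colonies, with the disk diameter = 200 units. Potency = dilution giving 500 units; the product multiplies it by the differentials against L1210 or CFU-GM.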

murine CFU-GM = test: Disk diffusion assay, zone of inhibition, murine CFU-GM; assay type: cell-based; details: 1 mg/mL
Procedure: as §1, §5, §3

HCT-116 cells [5] = test: HCT-116 cytotoxicity, viable cell count by trypan blue; assay type: cell-based, human
HCT-116 cells [6] = test: Clonogenic assay, HCT-116; assay type: cell-based, human; details: colonies at 7 days
Procedure: A clonogenic assay was performed using HCT-116 cells. Specifically, HCT-116 cells were seeded at 200 to 20,000 cells in 60 mm dishes. […] At either 2 hours or 24 hours following drug administration, the drug-containing media was removed, and fresh media without drug was added. In addition, one group of cells was subjected to continuous drug exposure for the entire incubation period. The dishes were incubated for 7 days (at 37° C. and 5% CO2), media was removed, and the colonies were stained with methylene blue. Colonies containing 50 cells or more were counted. The results were normalized to an untreated control. Plating efficiency for the untreated cells was about 90%. Repeat experiments also were carried out to define the cell survival range between 1 (100%) and 10^−3 (0.1%) survival. A survival rate of 10^−1 was chosen as the minimal level that would be required in vivo to achieve therapeutic efficacy against HCT-116 cells in tumor-bearing mice. The clonogenic dose response to 15-O-(3′-hydroxy-3′-isopropyl-4′-methylpentanoyl)bruceolide is illustrated in FIG. 4. The clonogenic dose response to 15-(3-isopropyl-4-methyl-2-pentenoyl)-bruceolide is illustrated in FIG. 5.

[7] = system: H125 (human lung carcinoma); test: Disk diffusion assay, zone of inhibition, H125; assay type: cell-based; details: 1 mg/mL
Procedure: as §1, §2, §4, §3

L1210 (murine leukemia) = test: Disk diffusion assay, zone of inhibition, L1210; assay type: cell-based; details: 1 mg/mL
Procedure: as §1, §2, §3

WiDr = test: MTT cytotoxicity assay (% kill), WiDr; assay type: cell-based, human; details: 1 h exposure
Procedure: (§6) The following human tumor cell lines were obtained and cultured in sextuplicate microwells at 37° C. and 5% CO2 in humidified air and in 10% FBS in Eagles MEM: SK—N—FI, SK—N-AS, LS-174T, WiDr, HuTu-80, MCF7, NCI-AR, MES-Sar, and PL-45. Cells from each cell line were separately treated with an amount of one of the compounds of Formula I, II, or III (see Table 1). Cells were exposed to each compound (0.1 μg/mL or 1.0 μg/mL) for one hour or 24 hours, rinsed with drug-free media, and incubated for an additional five days. The number of viable cells after five days was measured using an MTT (3-(4,5-dimethylthiazol-2-yl)-2,5-diphenyltetrazolium bromide) assay (see, e.g., Mosmann, J. Immunol. Methods, 65(1-2), 55-63 (1983)).
(§7) The cytotoxicity of each drug was determined and expressed as the percent of cells killed (“% kill”).

NCI-AR = test: MTT cytotoxicity assay (% kill), NCI-AR; assay type: cell-based, human; details: 1 h exposure
Procedure: as §6, §7

MES-Sar = test: MTT cytotoxicity assay (% kill), MES-Sar; assay type: cell-based, human; details: 1 h exposure
Procedure: as §6, §7

SK-N-AS = test: MTT cytotoxicity assay (% kill), SK-N-AS; assay type: cell-based, human; details: MTT after five days
Procedure: as §6, §7

LS-174T = test: MTT cytotoxicity assay (% kill), LS-174T; assay type: cell-based, human; details: 1 h exposure, MTT after five days
Procedure: as §6, §7

[8] = no dilution, 15 μl on disk, 6.5 mm = 200 units

COC(=O)[C@@]12OC[C@]34[C@H]([C@@H](O)[C@@H]1O)[C@@]1(C)CC(=O)C(O)=C(C)[C@@H]1C[C@H]3OC(=O)[C@H](OC(=O)/C=C(\C)C(C)C)[C@@H]24 [Bruceantin, bruceantin]
zone of inhibition, CEM [1]: 450 units | zone of inhibition, H-116 ([2]; dilution 1/10): 1000 units | zone of inhibition, H-116 ([2]; dilution 1/100): 400 units | zone of inhibition, H-116 ([2]; dilution 1/1000): 0 units | zone of inhibition, H-116 [2, 8]: >1000 units | zone of inhibition, human CFU-GM (human CFU-GM; dilution 1/10): >1000 units | zone of inhibition, human CFU-GM (human CFU-GM; dilution 1/100): 650 units | maximum tolerated dose, Dose - 1 Mouse ([3]; intravenous): 0.1 mg/mouse | MTD ([3]; mouse, in vivo, iv, maximum tolerated dose, Dose - 1 Mouse): 5.4 mg/kg | zone of inhibition, Colon 38 ([4]; dilution 1/10): >1000 units | zone of inhibition, Colon 38 ([4]; dilution 1/100): 600 units and 1000 units | zone of inhibition, Colon 38 ([4]; dilution 1/1000): 600 units and 450 units | zone of inhibition, Colon 38 [4, 8]: >1000 units | Sum [4]: 1050 | C38ΔL1210 [4]: 500 | C38ΔCFU [4]: 550 | Product [4]: 6300 | zone of inhibition, murine CFU-GM (murine CFU-GM; dilution 1/10): 550 units | zone of inhibition, murine CFU-GM (murine CFU-GM; dilution 1/100): 150 units and 200 units | zone of inhibition, murine CFU-GM (murine CFU-GM; dilution 1/1000): 0 units | IC90/IC50 (HCT-116 cells [5]; HCT-116): 6,700 | IC50 (HCT-116 cells [5]; Homo sapiens, 72 h, HCT-116, 3 days with compound, viable cells, by interpolation, read-out: IC50): 0.0015 µg/mL (≈ 0.00273 µM) | IC90 (HCT-116 cells [5]; Homo sapiens, 72 h, HCT-116, 3 days with compound, viable cells, by interpolation, read-out: IC90): 10 µg/mL (≈ 18.2 µM) | Concentration Required for 10^−1 Survival Fraction (HCT-116 cells [6]; HCT-116, 2 Hour Exposure): >10 μg/mL | Concentration Required for 10^−1 Survival Fraction (HCT-116 cells [6]; HCT-116, 24 Hour Exposure): >10 μg/mL | Concentration Required for 10^−1 Survival Fraction (HCT-116 cells [6]; HCT-116, Continuous Exposure): 2 × 10^−3 μg/mL | zone of inhibition, H-125 M ([7]; dilution 1/10): >1000 units | zone of inhibition, H-125 M ([7]; dilution 1/100): 600 units | zone of inhibition, H-125 M ([7]; dilution 1/1000): 100 units | zone of inhibition, H-125 M [7, 8]: >1000 units | zone of inhibition, L1210 (L1210 (murine leukemia); dilution 1/10): 1000 units | zone of inhibition, L1210 (L1210 (murine leukemia); [8]): >1000 units

CCC(O)(CC(=O)OC1C(=O)OC2CC3C(C)=C(O)C(=O)CC3(C)C3C(O)C(O)C4(C(=O)OC)OCC23C14)C(C)C (mixture of isomers) [(+/−)-15-O-(3′-ethyl-3′-hydroxy-4′-methyl)-bruceolide]
% kill, WiDr (WiDr; 0.1 μg/mL): 0% | % kill, WiDr (WiDr; 1.0 μg/mL): 0% | Sum [4]: 1150 | C38ΔL1210 [4]: 600 | C38ΔCFU [4]: 550 | Product [4]: 3450 | % kill, NCI-AR (NCI-AR; 0.1 μg/mL): 0% | % kill, NCI-AR (NCI-AR; 1.0 μg/mL): 0% | % kill, MES Sar (MES-Sar; 0.1 μg/mL): 0% | % kill, MES Sar (MES-Sar; 1.0 μg/mL): 0% | % Kill, SK-N-AS (SK-N-AS; 0.1 μg/mL, 1 h exposure): 0% | % Kill, SK-N-AS (SK-N-AS; 0.1 μg/mL, 24 h exposure): 0% | % Kill, SK-N-AS (SK-N-AS; 1.0 μg/mL, 1 h exposure): 0% | % Kill, SK-N-AS (SK-N-AS; 1.0 μg/mL, 24 h exposure): 0% | % Kill, LS-174T (LS-174T; 0.1 μg/mL): 0% | % Kill, LS-174T (LS-174T; 1.0 μg/mL): 0%
